Patent US9914739B2, “6H-furo[2,3-E]indole compounds for the treatment of hepatitis C” (BRISTOL-MYERS SQUIBB COMPANY, priority 2014, dated 2018)

Tested on: genotype 1b (Con-1) HCV replicon
Assay: HCV replicon luciferase assay, genotype 1b
Format: cell-based
Conditions: Hepatitis C virus, Huh-7, 72 h, Huh-7 cells with genotype 1b HCV replicon, Renilla luciferase, 3 days incubation
Procedure: The cell lines used to evaluate compounds consist of a human hepatocyte derived cell line (Huh-7) that constitutively expresses a genotype 1b (Con-1) HCV replicon or a genotype 1b (Con-1) HCV replicon with an asparagine replacing the cysteine at amino acid 316, or a genotype 2a (JFH-1) replicon, containing a Renilla luciferase reporter gene. These cells were maintained in Dulbecco's modified Eagle medium (DMEM) containing 10% FBS, 100 U/mL penicillin/streptomycin and 1.0 mg/mL G418.
To evaluate compound efficacy, titrated compounds were transferred to sterile 384-well tissue culture treated plates, and the plates were seeded with HCV replicon cells (50 μL at a density of 2.4×10^3 cells/well) in DMEM containing 4% FBS (final DMSO concentration at 0.5%). After 3 days incubation at 37° C., cells were analyzed for Renilla Luciferase activity using the EnduRen substrate (Promega cat #E6485) according to the manufacturer's directions. Briefly, the EnduRen substrate was diluted in DMEM and then added to the plates to a final concentration of 7.5 μM. The plates were incubated for at least 1 h at 37° C. then read on a Viewlux Imager (PerkinElmer) using a luminescence program. The 50% effective concentration (EC50) was calculated using the four-parameter logistic formula noted above.

| SMILES | EC50 (class symbol) [µM] | EC50 (numeric value) [µM] |
| --- | --- | --- |
| CCOC(=O)c1c(-c2ccc(F)cc2)oc2c1cc(OC(C)C)c1[nH]ccc12 [Compound 1001, ethyl 2-(4-fluorophenyl)-5-isopropoxy-6H-furo[2,3-e]indole-3-carboxylate] | > 1 |  |
| CNC(=O)c1c(-c2ccc(F)cc2)oc2c1cc(OC(C)C)c1[nH]ccc12 [Compound 1002, 2-(4-fluorophenyl)-5-isopropoxy-N-methyl-6H-furo[2,3-e]indole-3-carboxamide] | > 1 |  |
| CNC(=O)c1c(-c2ccc(F)cc2)oc2c1cc(-c1cccc(C(=O)OC)c1)c1[nH]ccc12 [Compound 1003] | > 1 | 1.46 |
| CNC(=O)c1c(-c2ccc(F)cc2)oc2c1cc(-c1cccc(C(=O)OC(C)(C)C)c1)c1[nH]ccc12 [Compound 1004, tert-butyl 3-(2-(4-fluorophenyl)-3-(methylcarbamoyl)-6H-furo[2,3-e]indol-5-yl)benzoate] | 0.1 to 1 |  |
| CNC(=O)c1c(-c2ccc(F)cc2)oc2c1cc(-c1cccc(C(=O)NC(C)(C)C)c1)c1[nH]ccc12 [Compound 1005, 5-(3-(tert-butylcarbamoyl)phenyl)-2-(4-fluorophenyl)-N-methyl-6H-furo[2,3-e]indole-3-carboxamide] | < 0.1 | 0.05 |
| CNC(=O)c1c(-c2ccc(F)cc2)oc2c1cc(-c1cccc(C(=O)NC(C)(C)C)c1)c1[nH]cc(C)c12 [Compound 1006] | 0.1 to 1 | 0.51 |
| CNC(=O)c1c(-c2ccc(F)cc2)oc2c1cc(-c1cccc(C(=O)NC(C)(C)C)c1)c1[nH]c(-c3ccccc3)cc12 [Compound 1007] | 0.1 to 1 |  |
| CNC(=O)c1c(-c2ccc(F)cc2)oc2c1cc(-c1cccc(C(=O)NC(C)(C)C)c1)c1[nH]c(C)cc12 [Compound 1008] | 0.1 to 1 |  |
| CNC(=O)c1c(-c2ccc(F)cc2)oc2c1cc(-c1ccc(OC)c(C(=O)NCC(F)(F)C(F)(F)C(F)(F)F)c1)c1[nH]ccc12 [Compound 1009] | < 0.1 |  |
| CNC(=O)C(=O)c1c[nH]c2c(OC(C)C)cc3c(C(=O)NC)c(-c4ccc(F)cc4)oc3c12 [Compound 2001] | > 1 |  |
| CNC(=O)c1c(-c2ccc(F)cc2)oc2c1cc(OC(C)C)c1[nH]cc(C(=O)C(=O)O)c12 [Compound 2002] | > 1 |  |
| CNC(=O)c1c(-c2ccc(F)cc2)oc2c1cc(-c1cccc(C(=O)NC(C)(C)C)c1)c1[nH]cc(C(=O)C(=O)OC)c12 [Compound 2003, methyl 2-(5-(3-(tert-butylcarbamoyl)phenyl)-2-(4-fluorophenyl)-3-(methylcarbamoyl)-6H-furo[2,3-e]indol-8-yl)-2-oxoacetate] | 0.1 to 1 | 0.44 |
| CNC(=O)c1c(-c2ccc(F)cc2)oc2c1cc(-c1cccc(C(=O)NC(C)(C)C)c1)c1[nH]cc(C(=O)C(=O)O)c12 [Compound 2004, 2-(5-(3-(tert-butylcarbamoyl)phenyl)-2-(4-fluorophenyl)-3-(methylcarbamoyl)-6H-furo[2,3-e]indol-8-yl)-2-oxoacetic acid] | > 1 |  |
| CNC(=O)C(=O)c1c[nH]c2c(-c3cccc(C(=O)NC(C)(C)C)c3)cc3c(C(=O)NC)c(-c4ccc(F)cc4)oc3c12 [Compound 2005] | > 1 | 5.16 |
| CNC(=O)c1c(-c2ccc(F)cc2)oc2c1cc(-c1cccc(C(=O)NC(C)(C)C)c1)c1[nH]cc(C(=O)C(=O)N(C)C)c12 [Compound 2006] | > 1 |  |
| CNC(=O)c1c(-c2ccc(F)cc2)oc2c1cc(-c1cccc(C(=O)O)c1)c1[nH]ccc12 [Compound 3001, 3-(2-(4-fluorophenyl)-3-(methylcarbamoyl)-6H-furo[2,3-e]indol-5-yl)benzoic acid] | > 1 |  |
| CNC(=O)c1c(-c2ccc(F)cc2)oc2c1cc(-c1cccc(C(=O)O)c1)c1c2ccn1C(=O)C(F)(F)F [Compound 3002, 3-(2-(4-fluorophenyl)-3-(methylcarbamoyl)-6-(2,2,2-trifluoroacetyl)-6H-furo[2,3-e]indol-5-yl)benzoic acid] | > 1 |  |
| CNC(=O)c1c(-c2ccc(F)cc2)oc2c1cc(-c1cccc(C(=O)NC(C)(C)C)c1)c1c2ccn1C(=O)C(F)(F)F [Compound 3003] | 0.1 to 1 | 0.2 |
| CNC(=O)c1c(-c2ccc(F)cc2)oc2c1cc(-c1cccc(C(=O)NCC(C)(C)C)c1)c1[nH]ccc12 [Compound 4001, 2-(4-fluorophenyl)-N-methyl-5-(3-(neopentylcarbamoyl)phenyl)-6H-furo[2,3-e]indole-3-carboxamide] | < 0.1 | 0.083 |
| CNC(=O)c1c(-c2ccc(F)cc2)oc2c1cc(-c1cccc(C(=O)NC34CC(C3)C4)c1)c1[nH]ccc12 [Compound 4002] | < 0.1 |  |
| CNC(=O)c1c(-c2ccc(F)cc2)oc2c1cc(-c1cccc(C(=O)NC(C)(C)CCO)c1)c1[nH]ccc12 [Compound 4003] | < 0.1 |  |
| CNC(=O)c1c(-c2ccc(F)cc2)oc2c1cc(-c1cccc(C(=O)NC(C)(C)C(=O)OC)c1)c1[nH]ccc12 [Compound 4004] | < 0.1 |  |
| CNC(=O)c1c(-c2ccc(F)cc2)oc2c1cc(-c1cccc(C(=O)NCC(C)(F)F)c1)c1[nH]ccc12 [Compound 4005] | 0.1 to 1 | 0.15 |

| SMILES | EC50 (class symbol) [µM] | EC50 (numeric value) [µM] |
| --- | --- | --- |
| CNC(=O)c1c(-c2ccc(F)cc2)oc2c1cc(-c1cccc(C(=O)NC3(c4ncccn4)CC3)c1)c1[nH]ccc12 [Compound 4006] | < 0.1 |  |
| CNC(=O)c1c(-c2ccc(F)cc2)oc2c1cc(-c1cccc(C(=O)NCC(F)(F)C(F)(F)C(F)(F)F)c1)c1[nH]ccc12 [Compound 4007] | < 0.1 | 0.049 |
| CNC(=O)c1c(-c2ccc(F)cc2)oc2c1cc(-c1cccc(C(=O)NCC(C)(C)CO)c1)c1[nH]ccc12 [Compound 4008] | 0.1 to 1 | 0.13 |
| CNC(=O)c1c(-c2ccc(F)cc2)oc2c1cc(-c1cccc(C(=O)NCC(C)(C)c3ccc(Cl)cc3)c1)c1[nH]ccc12 [Compound 4009, 5-(3-((2-(4-chlorophenyl)-2-methylpropyl)carbamoyl)phenyl)-2-(4-fluorophenyl)-N-methyl-6H-furo[2,3-e]indole-3-carboxamide] | 0.1 to 1 |  |
| CNC(=O)c1c(-c2ccc(F)cc2)oc2c1cc(-c1cccc(C(=O)NC(C)(C)c3ccc(Cl)cc3)c1)c1[nH]ccc12 [Compound 4010] | < 0.1 | 0.027 |
| CNC(=O)c1c(-c2ccc(F)cc2)oc2c1cc(-c1cccc(C(=O)NCC3(CO)CCC3)c1)c1[nH]ccc12 [Compound 4011] | 0.1 to 1 |  |
| CNC(=O)c1c(-c2ccc(F)cc2)oc2c1cc(-c1cccc(C(=O)NC3(C(=O)OC)CCC3)c1)c1[nH]ccc12 [Compound 4012] | 0.1 to 1 |  |
| C#CC(C)(C)NC(=O)c1cccc(-c2cc3c(C(=O)NC)c(-c4ccc(F)cc4)oc3c3cc[nH]c23)c1 [Compound 4013] | < 0.1 |  |
| CNC(=O)c1c(-c2ccc(F)cc2)oc2c1cc(-c1cccc(C(=O)NCC(C)(C)c3ccccc3)c1)c1[nH]ccc12 [Compound 4016] | 0.1 to 1 |  |
| C#CC1(NC(=O)c2cccc(-c3cc4c(C(=O)NC)c(-c5ccc(F)cc5)oc4c4cc[nH]c34)c2)CCCCC1 [Compound 4017] | 0.1 to 1 |  |
| C#CC(CC)(CC)NC(=O)c1cccc(-c2cc3c(C(=O)NC)c(-c4ccc(F)cc4)oc3c3cc[nH]c23)c1 [Compound 4018] | < 0.1 |  |
| C#CC(C)(CC)NC(=O)c1cccc(-c2cc3c(C(=O)NC)c(-c4ccc(F)cc4)oc3c3cc[nH]c23)c1 (stereo not shown) [Compound 4019] | 0.1 to 1 |  |
| CNC(=O)c1c(-c2ccc(F)cc2)oc2c1cc(-c1cccc(C(=O)NCC(F)(F)c3ccccn3)c1)c1[nH]ccc12 [Compound 4020] | 0.1 to 1 |  |
| C#CC(C)NC(=O)c1cccc(-c2cc3c(C(=O)NC)c(-c4ccc(F)cc4)oc3c3cc[nH]c23)c1 (stereo not shown) [Compound 4021] | 0.1 to 1 |  |
| CNC(=O)c1c(-c2ccc(F)cc2)oc2c1cc(-c1cccc(C(=O)NC(C)(C)C#N)c1)c1[nH]ccc12 [Compound 4022] | < 0.1 | 0.015 |
| CNC(=O)c1c(-c2ccc(F)cc2)oc2c1cc(OC(C)C)c1c2ccn1S(C)(=O)=O [Compound 5001, 2-(4-fluorophenyl)-5-isopropoxy-N-methyl-6-(methylsulfonyl)-6H-furo[2,3-e]indole-3-carboxamide] | > 1 |  |
| CNC(=O)c1c(-c2ccc(F)cc2)oc2c1cc(-c1cccc(C(=O)NC(C)(C)C)c1)c1c2ccn1S(C)(=O)=O [Compound 5002] | < 0.1 |  |
| CNC(=O)c1c(-c2ccc(F)cc2)oc2c1cc(-c1cccc(C(=O)NC(C)(C)C)c1)c1c2c(C)cn1S(C)(=O)=O [Compound 5003] | > 1 |  |
| CNC(=O)c1c(-c2ccc(F)cc2)oc2c1cc(-c1cccc(C(=O)NC(C)(C)C)c1)c1c2cc(-c2ccccc2)n1S(C)(=O)=O [Compound 5004] | 0.1 to 1 |  |
| CNC(=O)c1c(-c2ccc(F)cc2)oc2c1cc(-c1cccc(C(=O)NC(C)(C)C)c1)c1c2cc(C)n1S(C)(=O)=O [Compound 5005] | > 1 |  |
| CNC(=O)c1c(-c2ccc(F)cc2)oc2c1cc(-c1cccc(C(=O)NC(C)(C)c3ccc(Cl)cc3)c1)c1c2ccn1S(C)(=O)=O [Compound 5006] | < 0.1 |  |
| CNC(=O)c1c(-c2ccc(F)cc2)oc2c1cc(OC(C)C)c1c2ccn1CC(F)F [Compound 6001] | > 1 |  |
| CCn1ccc2c3oc(-c4ccc(F)cc4)c(C(=O)NC)c3cc(OC(C)C)c21 [Compound 6002] | > 1 |  |
